Assay results reported in US12534496B2, “Polymorphic forms of Cyclo (-His-Pro) and methods of use to treat kidney disease” (NovMetaPharma Co., Ltd., priority 2018, dated 2026).
“Also recorded” adds a separate entry of the source. Blank lines part the entries; values can stand above or below the molecule they belong to.

Columns and labels:
Assay type in all cases: physicochemical
[1] = Competitive slurry of Pattern 1 and Pattern 2 in EtOH/water/MtBE (form stability, XRPD)
Experimental: In order to study form stability in EtOH/water/MtBE, competitive repining experiments were carried out at 50° C., 35° C., and 5° C. respectively, by adding 100 mg of anhydrous Pattern 1 solid and 100 mg of Pattern 2 solid.

[2] = 8-week stability assessment at 40 °C/75% RH (XRPD, appearance, chiral HPLC); settings: for Chiral Purity: chiral HPLC
Experimental: XRPD analysis was carried out on a PANalytical X'pert pro, scanning the samples between 3 and 35° 2θ. The material was gently ground to release any agglomerates and loaded onto a multi-well plate with Kapton or Mylar polymer film to support the sample. The multi-well plate was then placed into the diffractometer and analyzed using Cu K radiation (α1λ=1.54060 Å; α2=1.54443 Å; β=1.39225 Å; α1: α2 ratio=0.5) running in transmission mode (step size 0.0130° 2θ) using 40 kV/40 mA generator settings.
13. Chiral HPLC Column: Daicel IC (5.0 um, 250*4.6 mm) Column Temperature: 30° C. Injection Volume: 5 μL Flow Rate: 1.0 mL/min Mobile Phase A: 0.01% DEA in n-Hexane Mobile Phase B: EtOH:MeOH=2:8 (v/v) Diluent: Acetonitrile PDA Range: 220 nm Gradient program: […]

[3] = 1 day stability assessment at 40 °C/75% RH (XRPD); settings: 2 hours at 40 °C/75% RH
[4] = Solvent solubility screen of CHP lyophile
Experimental: To a known mass of CHP lyophile (10 mg, from Section 5.2.2), 100 μL of the appropriate solvent was added and if solid remained the vial was gently heated to ˜40° C. to aid dissolution. Solvent addition continued until the material fully dissolved or 2 mL had been added (<5 mg/mL). The samples were uncapped and allowed to evaporate at ambient. The solvents used in the solubility screen can be found in Table 21.

- XRPD tracking ([1]; (EtOH:H2O = 9:1):MTBE = 1:2, 5 °C, 0 h): Pattern 2
- XRPD tracking ([1]; (EtOH:H2O = 9:1):MTBE = 1:2, 5 °C, 2 h): Pattern 2
- XRPD tracking ([1]; (EtOH:H2O = 9:1):MTBE = 1:2, 5 °C, 6 d): Pattern 2
- XRPD tracking ([1]; (EtOH:H2O = 9:1):MTBE = 1:2, 5 °C, 7 d): Pattern 2
- XRPD tracking ([1]; (EtOH:H2O = 9:1):MTBE = 1:2, 35 °C, 0 h): Pattern 2
- XRPD tracking ([1]; (EtOH:H2O = 9:1):MTBE = 1:2, 35 °C, 2 h): Pattern 2
- XRPD tracking ([1]; (EtOH:H2O = 9:1):MTBE = 1:2, 50 °C, 0 h): Pattern 2
- XRPD tracking ([1]; (EtOH:H2O = 9:1):MTBE = 1:2, 50 °C, 2 h): Pattern 2
- XRPD tracking ([1]; (EtOH:H2O = 9:1):MTBE = 1:3, 5 °C, 0 h): Pattern 2
- XRPD tracking ([1]; (EtOH:H2O = 9:1):MTBE = 1:3, 5 °C, 2 h): Pattern 2
- XRPD tracking ([1]; (EtOH:H2O = 9:1):MTBE = 1:3, 5 °C, 6 d): Pattern 2
- XRPD tracking ([1]; (EtOH:H2O = 9:1):MTBE = 1:3, 5 °C, 7 d): Pattern 2
- XRPD tracking ([1]; (EtOH:H2O = 9:1):MTBE = 1:3, 35 °C, 0 h): Pattern 2
- XRPD tracking ([1]; (EtOH:H2O = 9:1):MTBE = 1:3, 35 °C, 2 h): Pattern 2
- XRPD tracking ([1]; (EtOH:H2O = 9:1):MTBE = 1:3, 35 °C, 6 d): Pattern 2
- XRPD tracking ([1]; (EtOH:H2O = 9:1):MTBE = 1:3, 35 °C, 7 d): Pattern 2
- XRPD tracking ([1]; (EtOH:H2O = 9:1):MTBE = 1:3, 50 °C, 0 h): Pattern 2
- XRPD tracking ([1]; (EtOH:H2O = 9:1):MTBE = 1:3, 50 °C, 2 h): Pattern 2
- XRPD tracking ([1]; (EtOH:H2O = 9:1):MTBE = 1:3, 50 °C, 6 d): Pattern 2
- XRPD tracking ([1]; (EtOH:H2O = 9:1):MTBE = 1:3, 50 °C, 7 d): Pattern 2
- XRPD tracking ([1]; (EtOH:H2O = 9:1):MTBE = 2.5:0.5, 5 °C, 0 h): Pattern 2
- XRPD tracking ([1]; (EtOH:H2O = 9:1):MTBE = 2.5:0.5, 5 °C, 2 h): Pattern 2
- XRPD tracking ([1]; (EtOH:H2O = 9:1):MTBE = 2.5:0.5, 5 °C, 6 d): Pattern 2
- XRPD tracking ([1]; (EtOH:H2O = 9:1):MTBE = 2.5:0.5, 5 °C, 7 d): Pattern 2
- XRPD tracking ([1]; (EtOH:H2O = 9:1):MTBE = 2.5:0.5, 35 °C, 0 h): Pattern 2
- XRPD tracking ([1]; (EtOH:H2O = 9:1):MTBE = 2.5:0.5, 35 °C, 2 h): Pattern 2
- XRPD tracking ([1]; (EtOH:H2O = 9:1):MTBE = 2.5:0.5, 35 °C, 6 d): Pattern 2
- XRPD tracking ([1]; (EtOH:H2O = 9:1):MTBE = 2.5:0.5, 35 °C, 7 d): Pattern 2
- XRPD tracking ([1]; (EtOH:H2O = 9:1):MTBE = 2.5:0.5, 50 °C, 0 h): Pattern 2
- XRPD tracking ([1]; (EtOH:H2O = 9:1):MTBE = 2.5:0.5, 50 °C, 2 h): Pattern 2
- XRPD tracking ([1]; (EtOH:H2O = 9:1):MTBE = 2.5:0.5, 50 °C, 6 d): Pattern 2
- XRPD tracking ([1]; (EtOH:H2O = 9:1):MTBE = 3:0, 5 °C, 0 h): Pattern 2
- XRPD tracking ([1]; (EtOH:H2O = 9:1):MTBE = 3:0, 5 °C, 2 h): Pattern 2
- XRPD tracking ([1]; (EtOH:H2O = 9:1):MTBE = 3:0, 5 °C, 6 d): Pattern 2
- XRPD tracking ([1]; (EtOH:H2O = 9:1):MTBE = 3:0, 5 °C, 7 d): Pattern 2
- XRPD tracking ([1]; (EtOH:H2O = 9:1):MTBE = 3:0, 35 °C, 0 h): Pattern 2
- XRPD tracking ([1]; (EtOH:H2O = 9:1):MTBE = 3:0, 35 °C, 2 h): Pattern 2
- XRPD tracking ([1]; (EtOH:H2O = 9:1):MTBE = 3:0, 35 °C, 6 d): Pattern 2
- XRPD tracking ([1]; (EtOH:H2O = 9:1):MTBE = 3:0, 35 °C, 7 d): Pattern 2
- XRPD tracking ([1]; (EtOH:H2O = 9:1):MTBE = 3:0, 50 °C, 0 h): Pattern 2
Compound: O=C1N[C@@H](Cc2c[nH]cn2)C(=O)N2CCC[C@@H]12 [Pattern 1 and Pattern 2]

- Appearance ([2]; 2-week): Faint beige
- Appearance ([2]; 4-week): Faint beige
- XRPD form after storage ([2]; 4 weeks): remained as pattern 2
- Appearance ([2]; 8-week): Faint beige
- XRPD form after storage ([2]; 8 weeks): remained as pattern 2
- Appearance ([2]; Initial): Faint beige
- Chiral Purity ([2]; 2-week): 99.9%
- Chiral Purity ([2]; 4-week): 99.9%
- Chiral Purity ([2]; 8-week): 99.9%
- Chiral Purity ([2]; Initial): >99.9%
- XRPD form after storage ([3]; listed as Pure pattern 1): convert to pattern 2
- XRPD form after storage ([3]; listed as pure pattern 1): converts to pattern 2
Compound: O=C1N[C@@H](Cc2cnc[nH]2)C(=O)N2CCC[C@@H]12 [Pure Pattern 1, Cyclo (-His-Pro)]
- XRPD form after storage ([2]; two weeks (14 days)): converted to pattern 2; also recorded: converting to the hydrated pattern 2

- Approximate Solubility ([4]; 1-Butanol): ≥5000 µg/mL
- Approximate Solubility ([4]; 2-Butanol): ≥5000 µg/mL
- Approximate Solubility ([4]; Dichloromethane): ≤5000 µg/mL
- Approximate Solubility ([4]; Ethyl Acetate): ≤5000 µg/mL
- Approximate Solubility ([4]; Ethyl Formate): ≤5000 µg/mL
- Approximate Solubility ([4]; Heptane): ≤5000 µg/mL
- Approximate Solubility ([4]; Isopropyl Acetate): ≤5000 µg/mL
- Approximate Solubility ([4]; Methylethyl Ketone): ≤5000 µg/mL
- Approximate Solubility ([4]; Methylisobutyl Ketone): ≤5000 µg/mL
- Approximate Solubility ([4]; Nitromethane): ≤5000 µg/mL
- Approximate Solubility ([4]; THF): ≤5000 µg/mL
- Approximate Solubility ([4]; acetone): ≤5000 µg/mL
- Approximate Solubility ([4]; acetonitrile): ≤5000 µg/mL
- Approximate Solubility ([4]; tert-Butylmethyl Ether): ≤5000 µg/mL
Compound: O=C1N[C@@H](Cc2cnc[nH]2)C(=O)N2CCC[C@@H]12 [CHP Lyophile, Cyclo (-His-Pro)]
